Measurements taken from patent publication US20090247472A1, “TYPE 1, 4-NAPHTOQUINONE COMPOUNDS, COMPOSITIONS COMPRISING THEM AND USE OF THESE COMPOUNDS AS ANTI-CANCER AGENTS” (FLUOFARMA, priority 2006, published 2009).

Experiments:
Assay type in all cases: cell-based
cells [1] = test: Sub-G1 apoptosis test (DNA fragmentation, fluorescent DNA intercalator), Example 60; conditions: for Activity (sub-Gl): apoptosis, DNA fragmentation by fluorescence; for pro-apoptotic activity (in words): conclusion from the tests of Example 60
Experimental: The biological tests on activity (Sub-G1) relate to measurement of apoptosis. For this purpose, a fluorescent tracer, a DNA intercalator, makes it possible to display the fragmentation of the DNA. This fragmentation of the DNA results from the induction of the apoptotic phenomenon in the cells. The cells are incubated in the presence of various concentrations of the compounds presented above. The measurement of the apoptosis in the cells is monitored by measuring the fluorescence, thus making it possible to determine the activity of the compounds in […]. The activity tests (sub-G1) on certain compounds are presented below.

cells [2] = test: Cell proliferation by multiplexed flow cytometry (dilution of a fluorescent tracer), Example 61
Experimental: (§1) The activities are measured by multiplexed flow cytometry tests, by coupling the measurement of apoptosis and cell proliferation. The cell proliferation is measured by monitoring the dilution of a specific fluorescent tracer during the cell divisions: • the cells are incubated in the presence of several concentrations of compounds, then • the measurements of apoptosis and cell proliferation are made simultaneously by the flow cytometry technique; specimen dose/response curves for the action of the compounds on apoptosis and on cell proliferation are obtained.

cells [3] = test: Apoptosis (sub-G1) by multiplexed flow cytometry, Example 61
Experimental: as §1

[4] = conclusion from the tests of Example 61

Structure (SMILES) | Activity (sub-Gl) (cells [1]) | pro-apoptotic activity (in words) (cells [1]) | Activity (prolif at 24 h) (cells [2]; cell proliferation at 24 h, flow cytometry) | anti-proliferative activity (in words) (cells [2]; [4]) | Activity (sub-Gl) (cells [3]; apoptosis, multiplexed flow cytometry) | pro-apoptotic activity (in words) (cells [3]; [4])
CC1=C(CNC(=O)C(C)N)C(=O)c2ccccc2C1=O.Cl [Example 17, 2-methyl-3-(L-alaninyl-aminomethyl)-1,4-naphthoquinone chlorhydrate] | 13.3 µM | pro-apoptotic activity | – | – | – | –
CC1=C(CNC(=O)C(N)CO)C(=O)c2ccccc2C1=O.Cl [Example 18, 2-methyl-3-(L-serinyl-aminomethyl)-1,4-naphthoquinone chlorhydrate] | 11.8 µM | pro-apoptotic activity | – | – | – | –
CC1=C(CNC(=O)C(N)C(C)C)C(=O)c2ccccc2C1=O.Cl [Example 19, 2-methyl-3-(D-valinyl-aminomethyl)-1,4-naphthoquinone chlorhydrate] | 12 µM | pro-apoptotic activity | – | – | – | –
CC1=C(CNC(=O)C(N)C(C)O)C(=O)c2ccccc2C1=O [Example 20, 2-methyl-3-(L-threoninyl-aminomethyl)-1,4-naphthoquinone chlorohydrate] | 12.2 µM | pro-apoptotic activity | – | – | – | –
CC1=C(CCNC(=O)CN)C(=O)c2ccccc2C1=O.Cl [Example 26, 2-methyl-3-(glycinyl-aminoethyl)-1,4-naphthoquinone chlorohydrate] | – | – | 12.3 µM | anti-proliferative activity | 11.8 µM | pro-apoptotic
